Data from PubChem BioAssay AID330 (DTP/NCI, 2004).
Where “and” joins values, the source holds several entries; their conditions need not be identical. Identical values can stand only once. Inconclusive results and toxic doses are left out. Rule for the calls: active = survival T/C of 150% or more; inactive = T/C below 125% in these data.

Test system: P388 leukemia ip, CD2F1 mice, survival T/C
Test: NCI In Vivo Anticancer Drug Screen. Data for tumor model P388 Leukemia (intraperitoneal) in CD2F1 (CDF1) mice
Details: endpoint: median survival time, higher = longer survival
In short: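 Mice carrying the transplanted tumor received test compound or vehicle. Survival was recorded in each group, and the value is the treated-group measurement divided by that of the vehicle-treated control group.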

[1] = dose: 60.0 mg/kg/injection, schedule: Q01DX005 (ip), vehicle: Klucel (hydroxypropylcellulose) (HPC)
[2] = dose: 120.0 mg/kg/injection, schedule: Q01DX005 (ip), vehicle: Klucel (hydroxypropylcellulose) (HPC)
[3] = dose: 240.0 mg/kg/injection, schedule: Q01DX005 (ip), vehicle: Klucel (hydroxypropylcellulose) (HPC)
[4] = dose: 50.0 mg/kg/injection, schedule: Q01DX005 (ip), vehicle: saline with Tween-80
[5] = dose: 100.0 mg/kg/injection, schedule: Q01DX005 (ip), vehicle: saline with Tween-80
[6] = dose: 200.0 mg/kg/injection, schedule: Q01DX005 (ip), vehicle: saline with Tween-80
[7] = dose: 100.0 mg/kg/injection, schedule: Q04DX002 (ip), vehicle: saline with Tween-80
[8] = dose: 200.0 mg/kg/injection, schedule: Q04DX002 (ip), vehicle: saline with Tween-80
[9] = dose: 400.0 mg/kg/injection, schedule: Q04DX002 (ip), vehicle: saline with Tween-80
[10] = dose: 50.0 mg/kg/injection, schedule: Q01DX009 (ip), vehicle: saline with Tween-80
[11] = dose: 100.0 mg/kg/injection, schedule: Q01DX009 (ip), vehicle: saline with Tween-80
[12] = dose: 200.0 mg/kg/injection, schedule: Q01DX009 (ip), vehicle: saline with Tween-80
[13] = dose: 60.0 mg/kg/injection, schedule: Q01DX005 (ip), vehicle: saline with Tween-80
[14] = dose: 120.0 mg/kg/injection, schedule: Q01DX005 (ip), vehicle: saline with Tween-80
[15] = dose: 240.0 mg/kg/injection, schedule: Q01DX005 (ip), vehicle: saline with Tween-80

Measured: T/C

CCCCc1c(C)[nH]n(C(N)=NCCSCc2nc[nH]c2C)c1=O
inactive: [1] 100 % of control | [2] 99 % of control | [3] 100 % of control

CNc1nc(N)nc2c1nc(Cl)n2C1OC(CO)C(O)C1O (stereo not drawn)
inactive: [4] 102 % of control | [5] 101 % of control | [6] 95 % of control

CCCCNC1Cc2ccccc2CC1O (stereo not drawn)
inactive: dose: 0.79 mg/kg/injection, schedule: Q01DX005 (ip), vehicle: saline 100 % of control and 107 % of control | dose: 1.56 mg/kg/injection, schedule: Q01DX005 (ip), vehicle: saline 100 % of control and 104 % of control | dose: 3.12 mg/kg/injection, schedule: Q01DX005 (ip), vehicle: saline 101 % of control and 105 % of control and 115 % of control | dose: 6.25 mg/kg/injection, schedule: Q01DX005 (ip), vehicle: saline 100 % of control and 108 % of control and 121 % of control | dose: 12.5 mg/kg/injection, schedule: Q01DX005 (ip), vehicle: saline 104 % of control

CCOC(=O)N(O)c1ccc(C)cc1
inactive: [7] 109 % of control | [8] 112 % of control | [9] 124 % of control

COc1ccc2[nH]cc(C#N)c(=O)c2c1
inactive: [4] 101 % of control | [5] 90 % of control | [6] 92 % of control

Clc1nc(Cl)nc(N2CCCc3ccccc32)n1
inactive: [10] 89 % of control | [11] 96 % of control | [12] 93 % of control

COc1cccc(C2CC(C)(O)Oc3cc4c(cc32)OCO4)c1 (stereo not drawn)
inactive: [1] 93 % of control

O=S1(=O)c2ccccc2C(N2CCCCC2)C1CCCCC1C(N2CCCCC2)c2ccccc2S1(=O)=O (stereo not drawn)
inactive: [7] 100 % of control | [8] 98 % of control | [9] 99 % of control

CCCCCNCC(=O)ON1CCCC1C(=O)NC(Cc1ccccc1)C(=O)NC(CC(C)C)C(=O)O (stereo not drawn)
inactive: [7] 104 % of control | [8] 101 % of control | [9] 101 % of control

N#CCCSc1nnc(SCCC#N)s1
inactive: dose: 50.0 mg/kg/injection, schedule: Q01DX009 (ip), vehicle: Klucel (hydroxypropylcellulose) (HPC) 92 % of control | dose: 100.0 mg/kg/injection, schedule: Q01DX009 (ip), vehicle: Klucel (hydroxypropylcellulose) (HPC) 101 % of control | dose: 200.0 mg/kg/injection, schedule: Q01DX009 (ip), vehicle: Klucel (hydroxypropylcellulose) (HPC) 94 % of control | dose: 400.0 mg/kg/injection, schedule: Q01DX009 (ip), vehicle: Klucel (hydroxypropylcellulose) (HPC) 90 % of control

OCC1OC(n2cnc3c2NC=NC[C@H]3O)CC1O (stereo partly drawn)
inactive: dose: 0.05 mg/kg/injection, schedule: Q03HX024 (ip), vehicle: clinical formulation 100 % of control | dose: 0.05 mg/kg/injection, schedule: Q03HX024 (ip), vehicle: water 99 % of control | dose: 0.1 mg/kg/injection, schedule: Q03HX024 (ip), vehicle: clinical formulation 100 % of control | dose: 0.1 mg/kg/injection, schedule: Q03HX024 (ip), vehicle: water 100 % of control | dose: 0.12 mg/kg/injection, schedule: Q01DX009 (ip), vehicle: water 111 % of control | dose: 0.13 mg/kg/injection, schedule: Q01DX009 (ip), vehicle: saline 112 % of control | dose: 0.2 mg/kg/injection, schedule: Q03HX024 (ip), vehicle: clinical formulation 100 % of control | dose: 0.2 mg/kg/injection, schedule: Q03HX024 (ip), vehicle: water 100 % of control | dose: 0.25 mg/kg/injection, schedule: Q01DX005 (ip), vehicle: water 101 % of control and 102 % of control | dose: 0.25 mg/kg/injection, schedule: Q01DX009 (ip), vehicle: saline 100 % of control and 119 % of control | dose: 0.25 mg/kg/injection, schedule: Q01DX009 (ip), vehicle: water 103 % of control and 111 % of control | dose: 0.25 mg/kg/injection, schedule: Q04DX002 (ip), vehicle: saline 99 % of control and 112 % of control | dose: 0.25 mg/kg/injection, schedule: Q04DX003 (ip), vehicle: saline 101 % of control | dose: 0.38 mg/kg/injection, schedule: Q01DX009 (ip), vehicle: saline 107 % of control | dose: 0.5 mg/kg/injection, schedule: Q01DX005 (ip), vehicle: water 99 % of control and 101 % of control | dose: 0.5 mg/kg/injection, schedule: Q01DX009 (ip), vehicle: saline 109 % of control and 110 % of control | dose: 0.5 mg/kg/injection, schedule: Q01DX009 (ip), vehicle: water 99 % of control and 118 % of control | dose: 0.5 mg/kg/injection, schedule: Q04DX002 (ip), vehicle: saline 106 % of control and 109 % of control | dose: 0.5 mg/kg/injection, schedule: Q04DX003 (ip), vehicle: saline 101 % of control | dose: 0.66 mg/kg/injection, schedule: Q01DX009 (ip), vehicle: saline 92 % of control | dose: 0.75 mg/kg/injection, schedule: Q01DX009 (ip), vehicle: saline 104 % of control | dose: 1.0 mg/kg/injection, schedule: Q01DX005 (ip), vehicle: water 102 % of control | dose: 1.0 mg/kg/injection, schedule: Q01DX009 (ip), vehicle: saline 107 % of control and 94 % of control | dose: 1.0 mg/kg/injection, schedule: Q01DX009 (ip), vehicle: water 101 % of control | dose: 1.5 mg/kg/injection, schedule: Q01DX009 (ip), vehicle: saline 103 % of control | dose: 2.0 mg/kg/injection, schedule: Q01DX005 (ip), vehicle: water 102 % of control | dose: 2.0 mg/kg/injection, schedule: Q01DX009 (ip), vehicle: saline 102 % of control | dose: 2.0 mg/kg/injection, schedule: Q01DX009 (ip), vehicle: water 86 % of control | dose: 3.0 mg/kg/injection, schedule: Q01DX009 (ip), vehicle: saline 107 % of control | dose: 4.0 mg/kg/injection, schedule: Q01DX005 (ip), vehicle: water 104 % of control | dose: 4.0 mg/kg/injection, schedule: Q01DX009 (ip), vehicle: water 86 % of control

O=C1OC(c2ccccc2)=N/C1=C\c1ccccc1
inactive: dose: 25.0 mg/kg/injection, schedule: Q01DX009 (ip), vehicle: saline with Tween-80 95 % of control | [10] 100 % of control | [11] 100 % of control | [12] 95 % of control

Nc1cc2oc(=O)[nH]c2cc1Cl
inactive: dose: 50.0 mg/kg/injection, schedule: Q01DX005 (ip), vehicle: Klucel (hydroxypropylcellulose) (HPC) 90 % of control | dose: 100.0 mg/kg/injection, schedule: Q01DX005 (ip), vehicle: Klucel (hydroxypropylcellulose) (HPC) 92 % of control | dose: 200.0 mg/kg/injection, schedule: Q01DX005 (ip), vehicle: Klucel (hydroxypropylcellulose) (HPC) 103 % of control

CCOc1cc2c(cc1C(C)(C)c1ccc(OC)cc1)OCO2
inactive: [13] 98 % of control | [14] 109 % of control and 113 % of control | [15] 123 % of control

Cc1ccc2c(/C=C/c3ccc(N(C)C)cc3)ccnc2c1C
active: [10] 150 % of control
inactive: dose: 12.5 mg/kg/injection, schedule: Q01DX009 (ip), vehicle: saline with Tween-80 123 % of control | [11] 99 % of control

CSc1nc(=O)n(CCC#N)nc1SC
inactive: [1] 98 % of control | [2] 92 % of control | [3] 92 % of control

Cc1nn(CCO)c(C)c1N=[N+]([O-])c1c(C)nn(CCO)c1C
inactive: dose: 10.0 mg/kg/injection, schedule: Q01DX009 (ip), vehicle: suspension in saline 114 % of control | dose: 20.0 mg/kg/injection, schedule: Q01DX009 (ip), vehicle: suspension in saline 120 % of control | dose: 25.0 mg/kg/injection, schedule: Q04DX003 (ip), vehicle: Klucel (hydroxypropylcellulose) (HPC) 111 % of control and 116 % of control | dose: 30.0 mg/kg/injection, schedule: Q01DX009 (ip), vehicle: suspension in saline 116 % of control | dose: 50.0 mg/kg/injection, schedule: Q04DX003 (ip), vehicle: Klucel (hydroxypropylcellulose) (HPC) 115 % of control and 122 % of control | dose: 60.0 mg/kg/injection, schedule: Q01DX009 (ip), vehicle: suspension in saline 120 % of control | dose: 100.0 mg/kg/injection, schedule: Q04DX003 (ip), vehicle: Klucel (hydroxypropylcellulose) (HPC) 114 % of control and 96 % of control

COC(=O)C(N)C(F)c1ccccc1 (stereo not drawn)
inactive: [1] 107 % of control | [2] 100 % of control | [3] 98 % of control

Brc1cc(Br)cc(CN2CCOCC2)c1
inactive: [13] 98 % of control | [14] 100 % of control | [15] 106 % of control

Cc1cc2nc(C/C(=N/O)c3ccncc3)c(C/C(=N/O)c3ccncc3)nc2cc1C
inactive: [13] 93 % of control | [14] 91 % of control
